22 compounds from US20240417405A1, “Substituted Spiro Derivatives” (Janssen Pharmaceutica NV, priority 2021, published 2024) can be followed below.

Experiment [1] has as its system MOLM14 cells. As to the kind of experiment: Proliferation assay, spheroid-like growth, MOLM14 (MLL-AF9 rearranged). Type of experiment: cell-based, human. Conditions: Homo sapiens, MOLM-14, 192 h, 8 days, confluence as measure of spheroid size, read-out: spheroid assay_OneTime MOLM14 IC50. Summed up:
(§1)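 IC50 derived from a variable-slope dose-response fit of percent confluence change, with DMSO-treated cells as high control and high-dose reference compound as low control. Spheroid-like growth of MOLM14 (200 cells/well) or KO-52 (300 cells/well) in ultra-low attachment plates, 8 days, 37° C, 5% CO2, DMSO normalised to 0.3%, imaged at day 8.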

The test system of experiment [2] is KO-52 cells. As to the kind of experiment: Proliferation assay, spheroid-like growth, KO-52 (MLL wildtype control cell line). Format: cell-based, human. Particulars: Homo sapiens, 192 h, KO-52 control cells, 8 days, confluence as measure of spheroid size; read-out: spheroid assay_OneTime KO-52 IC50. Summed up:
as §1

In experiment [3] the target is T1, menin/MLL (terbium chelate-labeled menin, FITC-MBM1 peptide) (Homo sapiens, UniProt O00255, T541A).
T1 construct: Menin (a.a 1-610-6xhis tag)
T1 sequence (O00255 with tags, fused parts or gaps T541A): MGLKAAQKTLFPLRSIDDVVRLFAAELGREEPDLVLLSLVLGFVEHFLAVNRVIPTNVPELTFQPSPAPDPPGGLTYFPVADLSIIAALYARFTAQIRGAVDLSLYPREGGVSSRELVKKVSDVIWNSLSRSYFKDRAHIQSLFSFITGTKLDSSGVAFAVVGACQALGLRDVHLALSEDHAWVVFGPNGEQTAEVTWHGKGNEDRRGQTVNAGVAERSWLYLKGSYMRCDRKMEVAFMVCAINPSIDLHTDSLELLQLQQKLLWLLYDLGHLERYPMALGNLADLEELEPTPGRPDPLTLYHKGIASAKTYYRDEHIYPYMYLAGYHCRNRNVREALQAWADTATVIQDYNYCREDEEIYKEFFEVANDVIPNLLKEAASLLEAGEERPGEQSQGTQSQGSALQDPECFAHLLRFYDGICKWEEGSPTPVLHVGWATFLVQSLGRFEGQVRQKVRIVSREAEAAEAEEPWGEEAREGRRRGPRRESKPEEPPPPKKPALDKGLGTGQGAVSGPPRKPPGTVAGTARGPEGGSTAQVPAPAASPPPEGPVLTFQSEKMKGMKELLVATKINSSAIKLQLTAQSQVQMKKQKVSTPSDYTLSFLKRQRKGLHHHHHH
The experiment can be described thus: Menin/MLL homogenous time-resolved fluorescence (HTRF) assay. Type of experiment: binding. Conditions: 30 min incubation. Summed up:
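Compounds were preincubated 30 min at ambient temperature with 200 pM terbium-labeled menin (aa 1-610, His-tagged) in Tris pH 7.5 buffer with DTT and Pluronic, then 75 nM FITC-MBM1 peptide added for 15 min. HTRF ratio 520/490 nm gave % inhibition; IC50 from four-parameter fit, floor 0.1 nM.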

Structures are written as SMILES.

In the case of `CC(C)[C@H]([C@H]1C[C@@H](N2C[C@H](O)C3(CCC3)C2)C1)N1CC2(CCN(c3ncnnc3Oc3ccc(F)cc3-c3cncnc3C3CC3)C2)C1` (single isomer, unassigned) [Compound 214], the IC50 in experiment [1] was under 2 nM; in experiment [2], 3630 nM; in experiment [3] it was 0.1 nM.

Turning to `CC(C)[C@H]([C@H]1C[C@@H](N2C[C@@H](O)C3(CCC3)C2)C1)N1CC2(CCN(c3ncnnc3Oc3ccc(F)cc3-c3cncnc3C3CC3)C2)C1` (single isomer, unassigned) [Compound 215], the IC50 in experiment [1] was 2 nM; in experiment [2], 7940 nM; in experiment [3], 0.1 nM.

Consider `CC(C)[C@H]([C@H]1C[C@@H](N2CCC3(CC2)COC3)C1)N1CC2(CCN(c3ncnnc3Oc3ccc(F)cc3-c3cncnc3C3CC3)C2)C1` (single isomer, unassigned) [Compound 231], for which the IC50 in experiment [1] worked out at 7 nM; in experiment [2] it was 5520 nM; in experiment [3], 0.1 nM.

With `CC(C)[C@H]([C@H]1C[C@@H](N2CCC3(CCO3)CC2)C1)N1CC2(CCN(c3ncnnc3Oc3ccc(F)cc3-c3cncnc3C3CC3)C2)C1` (single isomer, unassigned) [Compound 232], the results for the IC50 in experiment [1], in experiment [2] and in experiment [3] were 7 nM, 1800 nM and 0.1 nM, respectively.

For `CO[C@H]1[C@@H]2CN([C@H]3C[C@@H]([C@@H](C(C)C)N4CC5(CCN(c6ncnnc6Oc6ccc(F)cc6-c6cncnc6C6CC6)C5)C4)C3)C[C@@H]21` (single isomer, unassigned) [Compound 233], the IC50 in experiment [1] turned out to be 2 nM; in experiment [2] it was 840 nM; in experiment [3] it was 0.1 nM.

For the compound `CC(C)[C@H]([C@H]1C[C@@H](N2C[C@H]3C[C@@H]2CO3)C1)N1CC2(CCN(c3ncnnc3Oc3ccc(F)cc3-c3cncnc3C3CC3)C2)C1` (single isomer, unassigned) [Compound 234], the values for the IC50 in experiment [1], in experiment [2] and in experiment [3] were 9 nM, 6280 nM and 0.1 nM, respectively.

As to `COC1CN([C@H]2C[C@@H]([C@@H](C(C)C)N3CC4(CCN(c5ncnnc5Oc5ccc(F)cc5-c5cncnc5C5CC5)C4)C3)C2)CC1OC` (single isomer, unassigned) [Compound 236], the half-inhibitory concentration (IC50) was 4 nM in experiment [1], 2250 nM in experiment [2] and 0.2 nM in experiment [3].

Take `COC1CN([C@H]2C[C@H]([C@@H](C(C)C)N3CC4(CCN(c5ncnnc5Oc5ccc(F)cc5-c5cncnc5C5CC5)C4)C3)C2)CC1OC` (single isomer, unassigned) [Compound 237]: the IC50 came to 36 nM in experiment [1], 7900 nM in experiment [2] and 0.2 nM in experiment [3].

For the compound `CC(C)[C@H]([C@H]1C[C@@H](N2CC[C@H](F)C2)C1)N1CC2(CCN(c3ncnnc3Oc3ccc(F)cc3-c3cncnc3C3CC3)C2)C1` (single isomer, unassigned) [Compound 238], the IC50 in experiment [1] came out at 2 nM; in experiment [2], 7170 nM; in experiment [3] it was 0.1 nM.

For the compound `CC(C)[C@H]([C@H]1C[C@H](N2CC[C@H](F)C2)C1)N1CC2(CCN(c3ncnnc3Oc3ccc(F)cc3-c3cncnc3C3CC3)C2)C1` (single isomer, unassigned) [Compound 239], the IC50 was determined as 16 nM in experiment [1], 2810 nM in experiment [2] and 0.3 nM in experiment [3].

For the compound `CC(C)[C@H]([C@H]1C[C@@H](N(C)CCCS(C)(=O)=O)C1)N1CC2(CCN(c3ncnnc3Oc3ccc(F)cc3-c3cncnc3C3CC3)C2)C1` (single isomer, unassigned) [Compound 242], the IC50 in experiment [1] was 8 nM; in experiment [2] it was 12200 nM; in experiment [3], 0.1 nM.

With `CC(C)[C@H]([C@H]1C[C@@H](N2CC(C(=O)N(C)C)C2)C1)N1CC2(CCN(c3ncnnc3Oc3ccc(F)cc3-c3cncnc3C3CC3)C2)C1` (single isomer, unassigned) [Compound 243], the IC50 in experiment [1] was 580 nM; in experiment [2] it was over 15000 nM; in experiment [3], 2.5 nM.

Turning to `CC(C)[C@@H]([C@H]1C[C@H](N2C[C@H]3COC[C@H]3C2)C1)N1CC2(CCN(c3ncnnc3Oc3ccc(F)cc3-c3cncnc3C3CC3)C2)C1` (single isomer, unassigned) [Compound 245], the values for the IC50 in experiment [1], in experiment [2] and in experiment [3] were 460 nM, 8940 nM and 0.6 nM, respectively.

Regarding `CC(C)[C@H]([C@H]1C[C@@H](N2C[C@@H]3[C@H](C2)[C@H]3C(=O)N(C)C)C1)N1CC2(CCN(c3ncnnc3Oc3ccc(F)cc3-c3cncnc3C3CC3)C2)C1` (single isomer, unassigned) [Compound 248], the IC50 in experiment [1] worked out at 4 nM; in experiment [2] it was 1460 nM; in experiment [3] it was 0.1 nM.

As to `CC(C)[C@@H]([C@H]1C[C@@H](N2CCCCC2)C1)N1CC2(CCN(c3ncnnc3Oc3ccc(F)cc3-c3nnccc3C3CC3)C2)C1` (single isomer, unassigned) [Compound 250], the IC50 in experiment [1] was 8 nM; in experiment [2] it was 940 nM; in experiment [3] it was 0.1 nM.

As to `CC(C)[C@@H]([C@H]1C[C@@H](N2CCC3(CCO3)CC2)C1)N1CC2(CCN(c3ncnnc3Oc3ccc(F)cc3-c3nnccc3C3CC3)C2)C1` (single isomer, unassigned) [Compound 251], the IC50 in experiment [1] is 7 nM; in experiment [2] it was 1240 nM; in experiment [3] it was 0.2 nM.

For the compound `CC(C)[C@H]([C@H]1C[C@@H](N2CCC3(CCO3)CC2)C1)N1CC2(CCN(c3ncnnc3Oc3ccc(F)cc3-c3nnccc3C3CC3)C2)C1` (single isomer, unassigned) [Compound 252], the IC50 in experiment [1] was 270 nM; in experiment [2], over 15000 nM; in experiment [3], 12.7 nM.

For `CC(C)[C@@H]([C@H]1C[C@@H](N2CCC3(CC2)COC3)C1)N1CC2(CCN(c3ncnnc3Oc3ccc(F)cc3-c3nnccc3C3CC3)C2)C1` (single isomer, unassigned) [Compound 253], the figures for the IC50 in experiment [1], in experiment [2] and in experiment [3] were 10 nM, 1620 nM and 0.1 nM, respectively.

Consider `CC(C)[C@@H]([C@H]1C[C@@H](N2CCC3(COC3)C2)C1)N1CC2(CCN(c3ncnnc3Oc3ccc(F)cc3-c3nnccc3C3CC3)C2)C1` (single isomer, unassigned) [Compound 254], for which the IC50 was 16 nM in experiment [1], over 15000 nM in experiment [2] and 0.1 nM in experiment [3].

Regarding `CC(C)[C@H]([C@H]1C[C@@H](N2CCC3(COC3)C2)C1)N1CC2(CCN(c3ncnnc3Oc3ccc(F)cc3-c3nnccc3C3CC3)C2)C1` (single isomer, unassigned) [Compound 255], the IC50 in experiment [1] was 920 nM; in experiment [2] it was over 15000 nM; in experiment [3], 4.7 nM.

Turning to `CO[C@H]1CCCN([C@H]2C[C@@H]([C@H](C(C)C)N3CC4(CCN(c5ncnnc5Oc5ccc(F)cc5-c5nnccc5C5CC5)C4)C3)C2)C1` (single isomer, unassigned) [Compound 256], the values for the IC50 in experiment [1], in experiment [2] and in experiment [3] were 5 nM, over 15000 nM and 0.2 nM, respectively.

`CO[C@@H]1CCN([C@H]2C[C@@H]([C@H](C(C)C)N3CC4(CCN(c5ncnnc5Oc5ccc(F)cc5-c5nnccc5C5CC5)C4)C3)C2)C1` (single isomer, unassigned) [Compound 257]: the IC50 in experiment [1] is 6 nM; in experiment [2], over 15000 nM; in experiment [3], 0.1 nM.
